The structures appear in SMILES notation. Where a name gives a salt, the structure may show the parent alone.

As a reminder, the Ki is the dissociation constant of the complex between target and ligand, obtained from inhibition or displacement.

One experiment has as its target 5-HT1 receptor. Nature of the experiment: Affinity for the 5-HT1 receptor (receptor binding, 3H-serotonin radioligand, calf hippocampus membranes). The settings on record: calf hippocampus membrane preparations; 3H-Serotonin as radioligand. The text has this:
Affinity for the 5-HT1 receptor
The high affinity of the compounds according to the invention for 5-hydroxytryptamine receptors of the subtype 1 is represented by way of example in Table 1. The values indicated are data which have been determined from receptor binding studies with calf hippocampus membrane preparations. 3H-Serotonin was used for this as a radioactively labelled ligand.
In turn, `COc1ccc2[nH]cc3c2c1CC(NCCCCN1C(=O)c2ccccc2S1(=O)=O)C3` (stereo not drawn) [Example 1, 6-Methoxy-4-[4-(N-1,2-benzisothiazol-3(2H)-one-1,1-dioxide-yl)]-butylamino-1,3,4,5-tetrahydrobenz[c,d]indole hydrochloride] came in with a Ki of 2 nM. Still for that read-out and setting: the result for `CCCN(CCNS(=O)(=O)c1ccc2ccccc2c1)C1Cc2c[nH]c3ccc(OC)c(c23)C1` (stereo not drawn) [Example 9, 6-Methoxy-4-[N-propyl-N-(naphthylsulphonylamidoethyl)]-amino-1,3,4,5-tetrahydrobenz[c,d]indole hydrochloride] reads 2 nM; that for `COc1ccc2[nH]cc3c2c1CC(NCCCNS(=O)(=O)c1ccc(F)cc1)C3` (stereo not drawn) [Example 18, 6-Methoxy-4-(4-fluorophenylsulphonylamidopropyl)-amino-1,3,4,5-tetrahydrobenz[c,d]indole hydrochloride], 0.7 nM.

Turning to `CCCN(CCNS(C)(=O)=O)C1Cc2c[nH]c3ccc(OC)c(c23)C1` (stereo not drawn) [Example 6, 6-Methoxy-4-[N-propyl-N-(methylsulphonylamidoethyl)]-amino-1,3,4,5-tetrahydrobenz[c,d]indole], the affinity, expressed as Ki, was 6 nM. On the same count and under the same terms, for `CCCN(CCNS(=O)(=O)c1ccc(C)cc1)C1Cc2c[nH]c3ccc(OC)c(c23)C1` (stereo not drawn) [Example 8, 6-Methoxy-4-[N-propyl-N-(tosylamidoethyl)]-amino-1,3,4,5-tetrahydrobenz[c,d]indole hydrochloride] the value was 1 nM; for `CCCN(CCNC(=O)OCC)C1Cc2c[nH]c3ccc(OC)c(c23)C1` (stereo not drawn) [Example 5, 6-Methoxy-4-[N-propyl-N-(ethyloxycarbonylaminoethyl)]amino-1,3,4,5-tetrahydrobenz[c,d]indole], 1 nM; for `CCCN(CCS(=O)(=O)N(C)C)C1Cc2c[nH]c3ccc(OC)c(c23)C1` (stereo not drawn) [Example 15, 6-Methoxy-4-[N-propyl-N-(dimethylsulphamoylethyl)]-amino-1,3,4,5-tetrahydrobenz[c,d]indole], 8 nM. On the same count and under the same terms, the result for `O=C1c2ccccc2S(=O)(=O)N1CCCCNC1Cc2cccc3[nH]cc(c23)C1` (stereo not drawn) [Example 2, 4-[4-(N-1,2-Benzisothiazol-3(2H)-one-1,1-dioxide-yl)]-butylamino-1,3,4,5-tetrahydrobenz[c,d]indole] reads 2 nM.

A further experiment relates to "behavioral despair" behavior. Nature of the experiment: "behavioral despair" behavior according to Porsolt et al. The experiment is classed as in vivo. The settings on record: according to Porsolt et al. 1977. The text has this: Furthermore, the antidepressive action properties of the compounds were investigated. For this, the influence of the compounds on the so-called "behavioral despair" behavior was investigated according to Porsolt et al. Arch. Int. Pharmacodyn. Ther. 229, 327 (1977).
Take `CCCNC1Cc2c[nH]c3ccc(OC)c(c23)C1` (stereo not drawn) [Example 13, 6-Methoxy-4-propylamino-1,3,4,5-tetrahydrobenz[c,d]indole]: the “influence on "behavioral despair" behavior (antidepressive action)” value is listed as “positive action”. On the same count and under the same terms, the result for `COc1ccc2[nH]cc3c2c1CC(NCCCCN(C)S(=O)(=O)c1ccc(F)cc1)C3` (stereo not drawn) [Example 4, 6-Methoxy-4-[4-(N-4-fluorobenzenesulfonyl-N-methyl)amidobutyl]-amino-1,3,4,5-tetrahydrobenz[c,d]indole hydrochloride] reads “positive action”. Same read-out and setting: the result for `COc1ccc2[nH]cc3c2c1CC(NCCCCN1Cc2ccccc2S1(=O)=O)C3` (stereo not drawn) [Example 3, 6-Methoxy-4-[4-(N-2,3-dihydro-1,2-benzisothiazol-1,1-dioxid-yl)]-butylamino-1,3,4,5-tetrahydrobenz[c,d]indole hydrochloride] reads “positive action”; that for `CCCCS(=O)(=O)NCCN(CCC)C1Cc2c[nH]c3ccc(OC)c(c23)C1` (stereo not drawn) [Example 7], “positive action”.

The record behind these values is patent US5021438A, “1,3,4,5-tetrahydrobenz(c,d)indoles” (Bayer Aktiengesellschaft, priority 1988, dated 1991).
